Test results as given in EP2736485B1, “AQUEOUS SOLUTIONS OF […], IN […] SOLUTIONS” (Universität Regensburg, priority 2011, dated 2013).

Experiment: Solubilisation of active ingredient in aqueous surfactant solution (stirring overnight at room temperature)
Type: physicochemical
Conditions: Aqua bidest. ad 1,00 ml
Experimental: Das einfache grundlegende System besteht aus einem erfindungsgemäß geeigneten Tensid, einem lipophilen Wirkstoff und Wasser. Durch Lösen der Bestandteile mittels Rühren entsteht ein vorzugsweise klares, kolloidales System, in welchem die lipophile Substanz in Mizellen verkapselt gelöst ist.
Wirkstoff und Tensid wurden eingewogen und um 1ml Aqua bidest. ergänzt. Dieser Ansatz wurde über Nacht durch Rühren bei Raumtemperatur (21°C) gelöst. […] Die Messungen wurden mittels Photonenkorellationsspektrometrie durchgeführt.
Die Herstellung erfolgte analog wie bereits unter Beispiel 1 beschrieben.

CCCC1O[C@@H]2C[C@H]3[C@@H]4CCC5=CC(=O)C=C[C@]5(C)[C@H]4[C@@H](O)C[C@]3(C)[C@]2(C(=O)CO)O1 (stereo partly shown) [Budesonid]
Budesonid in Lösung (Solutol® HS15 10,00 mg): 0,09 mg
Budesonid in Lösung (Solutol® HS15 50,00 mg): 0,41 mg
Budesonid in Lösung (Solutol® HS15 100,00 mg): 0,77 mg
Budesonid in Lösung (Solutol® HS15 200,00 mg): 1,32 mg
